The source of these data is PMC5931475, “Deciphering the molecular determinants of cholinergic anthelmintic sensitivity in nematodes: When novel functional validation approaches highlight major differences between the model Caenorhabditis elegans and parasitic species” (PLoS Pathogens, 2018).

Test [1] relates to composite Cel-L-AChR with Hco-ACR-8 (29/38/63/L1 + Hco-ACR-8). Details: species or system Xenopus laevis oocytes. Particulars: Imax as % of 100 uM ACh response; agonist.
Test [2] relates to T1, composite Cel-L-AChR with Asu-ACR-8 (29/38/63/L1 + Asu-ACR-8).
T1 construct: mixed-species complex of whole subunits; cRNA in Xenopus laevis oocytes with C. elegans RIC-3, UNC-50, UNC-74; LEV-8 replaced by A. suum ACR-8
T1 sequence (A0A2I6TEN1 25-521): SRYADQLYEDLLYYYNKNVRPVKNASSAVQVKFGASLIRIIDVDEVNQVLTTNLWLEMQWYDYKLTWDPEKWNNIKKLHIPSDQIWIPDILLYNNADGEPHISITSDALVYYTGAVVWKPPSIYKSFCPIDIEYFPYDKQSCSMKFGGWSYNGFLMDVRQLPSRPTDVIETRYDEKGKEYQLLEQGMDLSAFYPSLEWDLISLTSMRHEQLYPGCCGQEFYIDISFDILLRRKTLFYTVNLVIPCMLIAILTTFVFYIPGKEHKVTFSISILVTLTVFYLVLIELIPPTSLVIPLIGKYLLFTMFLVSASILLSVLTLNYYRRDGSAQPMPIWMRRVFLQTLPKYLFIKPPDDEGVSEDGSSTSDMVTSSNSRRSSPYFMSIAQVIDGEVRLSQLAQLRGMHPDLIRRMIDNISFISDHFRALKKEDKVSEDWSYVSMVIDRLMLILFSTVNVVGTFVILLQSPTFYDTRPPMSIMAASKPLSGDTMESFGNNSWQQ
T1 sequence (Q23022 17-511, further chain): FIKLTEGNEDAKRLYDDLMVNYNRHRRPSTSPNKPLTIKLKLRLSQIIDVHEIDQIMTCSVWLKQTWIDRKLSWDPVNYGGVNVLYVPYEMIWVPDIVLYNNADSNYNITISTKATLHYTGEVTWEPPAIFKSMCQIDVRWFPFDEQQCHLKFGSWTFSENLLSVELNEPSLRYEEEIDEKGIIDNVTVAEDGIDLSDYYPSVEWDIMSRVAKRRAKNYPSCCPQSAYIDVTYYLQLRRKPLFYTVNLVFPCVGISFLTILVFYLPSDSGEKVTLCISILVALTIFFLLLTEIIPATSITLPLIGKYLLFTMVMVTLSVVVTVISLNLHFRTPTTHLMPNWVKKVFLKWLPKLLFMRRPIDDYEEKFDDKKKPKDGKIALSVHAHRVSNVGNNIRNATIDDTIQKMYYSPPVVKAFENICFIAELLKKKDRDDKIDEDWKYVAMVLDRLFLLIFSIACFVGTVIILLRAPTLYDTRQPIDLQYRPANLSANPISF
T1 sequence (Q9N587 24-502, further chain): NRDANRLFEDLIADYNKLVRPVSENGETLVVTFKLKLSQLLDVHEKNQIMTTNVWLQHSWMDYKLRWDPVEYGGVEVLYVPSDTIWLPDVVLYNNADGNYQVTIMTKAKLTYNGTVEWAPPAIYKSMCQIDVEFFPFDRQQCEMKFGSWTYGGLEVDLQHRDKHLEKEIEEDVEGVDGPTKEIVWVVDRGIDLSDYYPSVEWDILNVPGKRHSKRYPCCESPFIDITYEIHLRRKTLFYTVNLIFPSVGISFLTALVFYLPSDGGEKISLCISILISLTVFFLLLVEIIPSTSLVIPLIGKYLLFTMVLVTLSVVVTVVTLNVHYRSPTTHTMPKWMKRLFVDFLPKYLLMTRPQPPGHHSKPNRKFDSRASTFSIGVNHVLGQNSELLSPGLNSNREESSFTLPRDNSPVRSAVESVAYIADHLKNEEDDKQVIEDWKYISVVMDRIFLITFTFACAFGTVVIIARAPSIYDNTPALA
T1 sequence (P48181 27-493, further chain): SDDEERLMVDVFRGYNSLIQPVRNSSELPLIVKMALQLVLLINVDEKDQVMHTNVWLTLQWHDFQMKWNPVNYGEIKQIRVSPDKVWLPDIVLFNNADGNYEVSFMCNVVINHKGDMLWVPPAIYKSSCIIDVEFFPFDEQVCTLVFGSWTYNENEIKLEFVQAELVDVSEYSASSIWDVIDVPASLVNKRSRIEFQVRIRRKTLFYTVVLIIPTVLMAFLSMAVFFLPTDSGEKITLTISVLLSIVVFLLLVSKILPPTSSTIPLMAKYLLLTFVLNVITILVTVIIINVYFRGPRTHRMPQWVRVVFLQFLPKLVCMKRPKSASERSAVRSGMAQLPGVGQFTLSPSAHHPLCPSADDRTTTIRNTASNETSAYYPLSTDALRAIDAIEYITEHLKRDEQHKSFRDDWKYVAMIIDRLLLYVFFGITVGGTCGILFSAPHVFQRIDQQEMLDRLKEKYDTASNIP
T1 sequence (Q27218 32-507, further chain): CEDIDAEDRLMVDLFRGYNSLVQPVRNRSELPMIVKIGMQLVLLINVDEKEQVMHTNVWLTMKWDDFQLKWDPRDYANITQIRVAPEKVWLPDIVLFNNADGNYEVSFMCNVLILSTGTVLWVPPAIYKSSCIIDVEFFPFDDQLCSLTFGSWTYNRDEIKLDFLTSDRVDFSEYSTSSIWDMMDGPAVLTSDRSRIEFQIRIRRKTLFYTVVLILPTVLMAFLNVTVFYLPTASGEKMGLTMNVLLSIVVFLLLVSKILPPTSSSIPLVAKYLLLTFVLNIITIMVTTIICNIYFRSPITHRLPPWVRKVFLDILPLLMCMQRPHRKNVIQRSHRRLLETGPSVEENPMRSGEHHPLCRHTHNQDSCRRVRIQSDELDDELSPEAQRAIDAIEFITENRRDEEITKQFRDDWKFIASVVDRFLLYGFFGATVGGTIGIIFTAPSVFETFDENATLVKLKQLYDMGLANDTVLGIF
On the set-up: species or system Xenopus laevis oocytes; Agonist-evoked currents in cRNA-injected oocytes, concentration-response normalized to 100 uM ACh. The following applies: Imax as % of 100 uM ACh response; agonist. From the text:
(§1) The C. elegans L-AChR can be robustly expressed in Xenopus oocytes by co-expressing cRNAs from the five L-AChR subunits (UNC-38, UNC-63, UNC-29, LEV-1 and LEV-8) in combination with cRNA encoding three ancillary proteins (UNC-74, UNC-50 and RIC-3). Noticeably, the absence of any one of these AChR subunits or ancillary proteins from the injected cRNA mix leads to the loss of expression of functional receptor highlighting their major individual requirement. Taking advantage of this, we complemented the Cel-L-AChR by replacing the Cel-LEV-8 by ACR-8 subunits from distinct parasitic nematode species. As a preliminary set of experiments, cRNAs encoding ACR-8 from parasitic nematodes were micro-injected with the three ancillary proteins in order to test their ability to form a homomeric channel. […] Therefore, cRNAs encoding Cel-UNC-38, Cel-UNC-63, Cel-UNC-29, Cel-LEV-1, Cel-UNC-74, Cel-UNC-50 and Cel-RIC-3 in combination with either Hco-ACR-8 / Ode-ACR-8 / Asu-ACR-8 / Dim-ACR-8 / Min-ACR-8 were co-injected into Xenopus oocytes. Three days after injection, each of these combinations produced robust responses to 100μM ACh in oocytes (S3 Fig). Similarly, application of 100μM levamisole (Lev) elicited a response for all complemented Cel-L-AChRs. Dose response curves were generated for both ACh and Lev in complemented L-AChRs containing ACR-8 subunits from parasitic species (Fig 2 and Table 1). In comparison to the C. elegans L-AChR, we observed a drastic reduction of the ACh EC50 values in the composite L-AChRs complemented with Hco-ACR-8, Ode-ACR-8, Asu-ACR-8 and Dim-ACR-8. […] A. Representation of the putative arrangement of the C. elegans L-AChR subunits expressed in Xenopus oocytes and dose-response relationships for ACh (red triangle, n = 8) and Lev (white circle, n = 8). B-F. Representation of the putative subunit arrangement of the composite C. elegans L-AChRs including Cel-UNC-29, Cel-UNC-38, Cel-UNC-63, Cel-LEV-1 and the ACR-8 subunit from a parasitic nematode species: H. contortus ACR-8 (B), O. dentatum ACR-8 (C), A. suum ACR-8 (D), D. immitis ACR-8 (E) and M. incognita ACR-8 (F). Dose-response relationships for ACh and Lev are indicated by red triangles (n = 5–11) and white circles (n = 4–9), respectively. G-H. Representation of the putative subunit arrangement of the composite C. elegans L-AChRs with Hco-UNC-38 replacing Cel-UNC-38 (G) or Hco-UNC-63 replacing Cel-UNC-63 (H). Dose-response relationships for ACh and Lev are indicated by red triangles (n = 7–10) and white circles (n = 7–9), respectively. All responses are normalized to 100μM ACh. Results are shown as the mean ± se. […]

Test [3] concerns T2, Cel-L-AChR (29/38/63/L1 + Cel-LEV-8).
T2 construct: gene unc-38; full-length subunits from cRNA in Xenopus laevis oocytes with ancillary C. elegans RIC-3, UNC-50, UNC-74; heteropentamer
T2 sequence (Q23022 17-511): as the sequence (Q23022 17-511, further chain) above
T2 sequence (Q9N587 24-502, further chain): as the sequence (Q9N587 24-502, further chain) above
T2 sequence (P48181 27-493, further chain): as the sequence (P48181 27-493, further chain) above
T2 sequence (Q27218 32-507, further chain): as the sequence (Q27218 32-507, further chain) above
T2 sequence (Q93329 26-531, further chain): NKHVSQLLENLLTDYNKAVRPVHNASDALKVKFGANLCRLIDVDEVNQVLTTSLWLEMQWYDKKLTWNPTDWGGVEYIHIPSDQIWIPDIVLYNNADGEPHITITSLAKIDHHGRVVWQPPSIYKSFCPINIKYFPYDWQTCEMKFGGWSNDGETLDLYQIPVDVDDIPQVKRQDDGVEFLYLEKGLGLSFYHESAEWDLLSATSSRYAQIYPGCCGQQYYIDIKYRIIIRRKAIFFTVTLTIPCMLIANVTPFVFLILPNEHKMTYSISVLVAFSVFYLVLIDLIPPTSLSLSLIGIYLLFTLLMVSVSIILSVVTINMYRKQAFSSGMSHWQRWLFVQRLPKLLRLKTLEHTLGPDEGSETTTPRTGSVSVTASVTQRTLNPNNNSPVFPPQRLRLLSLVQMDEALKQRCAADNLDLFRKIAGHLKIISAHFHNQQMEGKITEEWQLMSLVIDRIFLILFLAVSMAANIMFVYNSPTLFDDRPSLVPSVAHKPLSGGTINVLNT
On the set-up: species or system Xenopus laevis oocytes; Agonist-evoked currents in cRNA-injected oocytes, concentration-response normalized to 100 uM ACh. Particulars: Imax as % of 100 uM ACh response; agonist.
Source text: as §1

Test [4] relates to T3, composite Cel-L-AChR with Hco-UNC-63 (29/38/L1/L8 + Hco-UNC-63).
T3 construct: mixed-species complex of whole subunits; cRNA in Xenopus laevis oocytes with ancillary RIC-3, UNC-50, UNC-74; Cel-UNC-63 replaced by H. contortus UNC-63
T3 sequence (D6MYF4 22-504): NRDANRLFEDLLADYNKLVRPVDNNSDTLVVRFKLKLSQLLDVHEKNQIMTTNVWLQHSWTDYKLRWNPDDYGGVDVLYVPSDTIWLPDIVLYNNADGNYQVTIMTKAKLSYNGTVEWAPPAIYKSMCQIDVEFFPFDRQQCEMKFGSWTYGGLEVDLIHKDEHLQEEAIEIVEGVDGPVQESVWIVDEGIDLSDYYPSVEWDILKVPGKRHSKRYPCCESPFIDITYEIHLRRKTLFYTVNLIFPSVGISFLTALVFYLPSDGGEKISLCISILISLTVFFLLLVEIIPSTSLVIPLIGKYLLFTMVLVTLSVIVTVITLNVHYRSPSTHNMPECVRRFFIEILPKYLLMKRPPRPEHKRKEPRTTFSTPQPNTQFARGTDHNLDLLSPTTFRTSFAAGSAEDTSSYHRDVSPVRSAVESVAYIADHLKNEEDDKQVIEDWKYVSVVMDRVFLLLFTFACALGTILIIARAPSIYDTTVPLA
T3 sequence (Q23022 17-511, further chain): as the sequence (Q23022 17-511, further chain) above
T3 sequence (P48181 27-493, further chain): as the sequence (P48181 27-493, further chain) above
T3 sequence (Q27218 32-507, further chain): as the sequence (Q27218 32-507, further chain) above
T3 sequence (Q93329 26-531, further chain): as the sequence (Q93329 26-531, further chain) above
On the set-up: species or system Xenopus laevis oocytes; Agonist-evoked currents in cRNA-injected oocytes, concentration-response normalized to 100 uM ACh. Particulars: Imax as % of 100 uM ACh response; agonist.
Source text: as §1

Test [5] deals with T4, composite Cel-L-AChR with Min-ACR-8 (29/38/63/L1 + Min-ACR-8).
T4 construct: mixed-species complex of whole subunits; cRNA in Xenopus laevis oocytes with C. elegans RIC-3, UNC-50, UNC-74; LEV-8 replaced by M. incognita ACR-8
T4 sequence (A0A2I6TEK4 19-527): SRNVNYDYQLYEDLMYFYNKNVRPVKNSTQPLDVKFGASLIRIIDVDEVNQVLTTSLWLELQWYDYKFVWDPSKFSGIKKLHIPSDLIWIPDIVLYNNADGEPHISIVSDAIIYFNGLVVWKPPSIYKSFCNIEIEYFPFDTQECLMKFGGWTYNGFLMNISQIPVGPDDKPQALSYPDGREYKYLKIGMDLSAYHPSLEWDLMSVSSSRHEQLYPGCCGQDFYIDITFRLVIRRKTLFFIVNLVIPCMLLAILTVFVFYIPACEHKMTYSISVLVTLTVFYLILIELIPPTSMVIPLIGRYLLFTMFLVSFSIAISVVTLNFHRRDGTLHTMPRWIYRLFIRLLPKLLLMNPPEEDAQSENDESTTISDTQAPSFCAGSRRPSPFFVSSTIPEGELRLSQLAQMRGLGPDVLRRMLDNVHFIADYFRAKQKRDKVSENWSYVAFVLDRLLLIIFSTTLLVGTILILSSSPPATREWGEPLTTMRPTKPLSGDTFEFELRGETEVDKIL
T4 sequence (Q23022 17-511, further chain): as the sequence (Q23022 17-511, further chain) above
T4 sequence (Q9N587 24-502, further chain): as the sequence (Q9N587 24-502, further chain) above
T4 sequence (P48181 27-493, further chain): as the sequence (P48181 27-493, further chain) above
T4 sequence (Q27218 32-507, further chain): as the sequence (Q27218 32-507, further chain) above
Details: species or system Xenopus laevis oocytes; Agonist-evoked currents in cRNA-injected oocytes, concentration-response normalized to 100 uM ACh. Particulars: Imax as % of 100 uM ACh response; agonist.
Source text: as §1

In test [6] the target is T5, composite Cel-L-AChR with Hco-UNC-38 (29/63/L1/L8 + Hco-UNC-38).
T5 construct: mixed-species complex of whole subunits; cRNA in Xenopus laevis oocytes with ancillary RIC-3, UNC-50, UNC-74; Cel-UNC-38 replaced by H. contortus UNC-38
The test is described as follows: two-electrode voltage clamp, Xenopus oocytes. The test is classed as cell-based, Caenorhabditis elegans; Haemonchus contortus. The following applies: read-out: Lev EC50; agonist; responses normalized to 100 μM ACh.

Test [7] has as its system composite Cel-L-AChR with Ode-ACR-8 (29/38/63/L1 + Ode-ACR-8). On the set-up: species or system Xenopus laevis oocytes. The following applies: Imax as % of 100 uM ACh response; agonist.
Test [8] has as its target T6, composite Cel-L-AChR with Hco-ACR-8 (29/38/63/L1 + Hco-ACR-8).
T6 construct: mixed-species complex of whole subunits; cRNA in Xenopus laevis oocytes with C. elegans RIC-3, UNC-50, UNC-74; LEV-8 replaced by H. contortus ACR-8
Nature of the test: two-electrode voltage clamp, Xenopus oocytes. The following applies: read-out: Lev EC50; full agonist; responses normalized to 100 μM ACh. Type of test: cell-based, Caenorhabditis elegans; Haemonchus contortus. In general terms: Two-electrode voltage clamp holds a large cell at a set potential and records current.

The target in test [9] is T1, composite Cel-L-AChR with Asu-ACR-8 (29/38/63/L1 + Asu-ACR-8). Nature of the test: two-electrode voltage clamp, Xenopus oocytes. Type of test: cell-based, Caenorhabditis elegans; Ascaris suum. The following applies: read-out: Lev EC50; agonist; responses normalized to 100 μM ACh.
In test [10] the target is T2, Cel-L-AChR (29/38/63/L1 + Cel-LEV-8). Nature of the test: two-electrode voltage clamp, Xenopus oocytes. The test is classed as cell-based, Caenorhabditis elegans. Particulars: partial agonist; responses normalized to 100 μM ACh.
Test [11] has as its target T4, composite Cel-L-AChR with Min-ACR-8 (29/38/63/L1 + Min-ACR-8). The test is described as follows: two-electrode voltage clamp, Xenopus oocytes. The test is classed as cell-based, Caenorhabditis elegans; Meloidogyne incognita. The following applies: agonist; responses normalized to 100 μM ACh; read-out: Lev EC50.
The subject of test [12] is composite Cel-L-AChR with Hco-UNC-38 (29/63/L1/L8 + Hco-UNC-38). On the set-up: species or system Xenopus laevis oocytes. Particulars: Imax as % of 100 uM ACh response; agonist.
The target in test [13] is T3, composite Cel-L-AChR with Hco-UNC-63 (29/38/L1/L8 + Hco-UNC-63). The test is described as follows: two-electrode voltage clamp, Xenopus oocytes. The test is classed as cell-based, Caenorhabditis elegans; Haemonchus contortus. Particulars: read-out: Lev EC50; agonist; responses normalized to 100 μM ACh.
Test [14] addresses T7, composite Cel-L-AChR with Ode-ACR-8 (29/38/63/L1 + Ode-ACR-8).
T7 construct: mixed-species complex of whole subunits; cRNA in Xenopus laevis oocytes with C. elegans RIC-3, UNC-50, UNC-74; LEV-8 replaced by O. dentatum ACR-8
The test is described as follows: two-electrode voltage clamp, Xenopus oocytes. The following applies: read-out: Lev EC50; full agonist; responses normalized to 100 μM ACh. The test is classed as cell-based, Caenorhabditis elegans; Oesophagostomum dentatum.

As a reminder, the EC50 is the concentration needed to bring the measured effect to its halfway point. For `c1ccc([C@H]2CN3CCSC3=N2)cc1` [levamisole], the “Lev Imax” value in [1] is 109.5 ±20.7%; in test [2] it was 51.6 ±7.0%; in test [3] it was 49.1±10.2%; in [4], 55.9 ±9.4%; in test [5], 33.9 ±13.9%; in [7] it was 112.4 ±19.0%. Also, the “Lev Imax” value in test [12] amounted to 51.1 ±4.5%. Also, the EC50 in test [6] worked out at 13.5 ± 1.5 µM; in test [8] it was 2.7 ± 1.4 µM; in test [9], 5.8 ± 1.2 µM; in test [10], 6.4 ± 1.2 µM; in [11], 10.1 ± 1.1 µM; in test [13], 12.1 ± 1.2 µM. The EC50 in test [14] worked out at 11.7 ± 1.3 µM.
